Where two headings read alike, the source gives them in different places.
Assays:
[1] = Tolerability and toxicity; type: in vivo; conditions: given intraperitoneally and given orally
[2] = Rydell et al. 1982; Kistler 1981; Loeliger et al. 1980; cited from earlier work
[3] = system: squamous metaplasia of the vaginal epithelium; assay: Antimetaplastic activity in ovarectomized rats (hormone-induced squamous metaplasia, vaginal smear); type: in vivo, female Holtzmann rats; conditions: for Relative activity (antimetaplastic): all-trans vitamin A acid = 100%; for Antimetaplastic effect (average effective / protective dosage): oral, read 2 days after administration, area method of Behrens and Karber
Procedure: (C) The antimetaplastic activity of compound Ia was determined in rats according to the following method. Female Holtzmann rats weighing approximately 100 g were ovarectomized under Thiogenal narcosis after an adaptation period of 8 days and were used in the experiment after a further 14 days. In each case two animals were placed in a cage and had free access to feed which contained approximately 2000 IU of analytically determined vitamin A. Prior to the oral administration of the test compound the animals were treated subcutaneously each day for 6 successive days with the hormone mixture of 1 μg of estradiol benzoate and 250 μg of testosterone propionate dissolved in 0.1 ml of sesame oil. The parenteral hormone administration led to the formation of a clear granular stage in the vaginal smear, i.e. a squamous metaplasia. 2 days after the oral administration of the test substance the result of the reaction was again read off on the vaginal epithelium. The area method according to Behrens and Karber was employed to calculate the average effective dosages.

[4] = system: chemically-induced breast tumors; assay: Prevention of chemically-induced (dimethyl-benz(a)anthracene) breast tumors in female rats; type: in vivo, female Sprague-Dawley rats; conditions: in feed, 11 weeks
Procedure: (A) The activity of compound Ia with respect to the prevention of chemically-induced breast tumors was determined according to the following procedure. Female Sprague-Dawley rats were used in this experiment. The experimental animals were kept under temperature-controlled and light-controlled conditions and had free access to drinking water and feed. At the age of 50 days 15 mg of dimethyl-benz(a)anthracene dissolved in arachis oil were administered to each rat by means of a probang. The treatment with compound Ia began 1 day after the administration of the carcinogen. The body weight of the experimental animals was recorded and the tumors were palpated weekly and measured with a vernier caliper. The volumes were calculated according to the formula D/2·d^2 in which D represents the larger diameter of the tumor ellipsoid and d represents the smaller diameter of the tumor ellipsoid. After 11 weeks the experiment was terminated and evaluated. In this experiment there were used in addition to 30 control animals, which received exclusively normal feed, the following three groups of experimental animals:
1. 33 rats to which were administered daily 30 mg/kg of compound Ia mixed with the feed.
2. 36 rats to which were administered daily 90 mg/kg of compound Ia mixed with the feed.
3. 33 rats to which were administered daily 270 mg/kg of compound Ia mixed with the feed.
The feed mixture was adjusted weekly according to the body weight and the total food intake.

[5] = cited from earlier work
[6] = system: transplantable chondrosarcoma of the rat; assay: Activity on the transplantable chondrosarcoma of the rat; type: in vivo, albino rats; conditions: 400 mg/kg p.o.
Procedure: (B) The activity of compond Ia on tumors was, furthermore, determined on the transplantable chondrosarcoma of the rat according to the following method. The solid tumor of a donor animal was finely minced and suspended in phosphate-buffered sodium chloride solution. 0.5 ml of the 30% tumor suspension was implanted subcutaneously into albino rats. […] Each treatment group embraced 7 rats. Suspensions of compound Ia in arachis oil were administered orally five times per week for 4 weeks. The tumor areas were determined on days 1, 15 and 29. The largest (D) and the smallest (d) diameter of the tumors were determined with the aid of a vernier caliper and the product D·d was determined. The change in this area size was calculated in percentages.

[7] = system: Trachea (rats)/hyperplasia induced by dimethylbenzanthracene; assay: Chemically-induced precancerous tissue changes in trachea organ culture (dimethylbenzanthracene-induced hyperplasia); type: cell-based; conditions: Rattus norvegicus, read-out: Mitotic index, relative to dimethylbenzanthracene control; for activity at 1 µM: 10^-6 M; for activity at 0.1 µM: 10^-7 M; for activity at 0.01 µM: 10^-8 M; for activity at 0.001 µM: 10^-9 M
Procedure: (§1) (D) The activity of compound Ia on chemically-induced precancerous tissue changes was, furthermore, determined in vitro according to the following method. In this experiment prostate glands of mice and trachea of rats cultivated in organ cultures served as the experimental models. In tissues of organ cultures carcinogenic substances bring about after a short period precancerous changes in the form hyperplasias as well as metaplasias and dysplasias. Retinoids, which are administered simultaneously with the carcinogenic compounds or after these, prevent the hyperplasia or metaplasia and dysplasia or even cause these to regress.
(§2) The prostate glands consist of alveoli lined with one row of secretory cells and separated by a thin connective tissue. They were removed from mice aged 3-5 months and cut into lobules of approximately 1.5×1.5×2.0 mm. At least six of these lobules were placed on filter paper and transferred on a metal lattice into small culture chambers. Two of these culture chambers were enclosed in a Petri dish lined with a moist filter paper. The culture chambers were filled with nutrient medium up to the height of the lattice so that the explants were moistened well with the nutrient medium, but were not immersed in this. At the nutrient medium there was used customary Medium 199 supplemented by the addition of 15% serum from newly born calves. The carcinogen (3-methylcholanthrene) was added to this prior to the incubation in a concentration of 4-5 μg/ml of nutrient medium. The cultures were then incubated at 37.5° C. During the incubation they were kept in a Macintosh flask which was gassed with a mixture of 5% CO2 +95% oxygen. In a first series of experiments the carcinogen and compound Ia were combined and the tissue was cultivated for 10-12 days. In a second series the explants were pre-treated with the carcinogen for 10-12 days and thereafter placed in a nutrient medium, which only contained compound Ia, for 4-7 days. The concentration of compound Ia lay in the range of 10^-9 to 10^-6 Mol.
Trachea of rats are cultivated in the same manner and treated with dimethylbenzanthracene as the carcinogen. The mitotic index serves as the parameter of the hyperplasia. With retinoid the mitotic index and the hyperplasias, respectively, are smaller. The results are compiled in Tables IV (prostate) and V (trachea).

[8] = system: Prostate (mouse)/hyperplasia induced by methylcholanthrene; assay: Chemically-induced precancerous tissue changes in prostate gland organ culture (methylcholanthrene-induced hyperplasia); type: cell-based; conditions: read-out: Hyperplastic alveoli, relative to methylcholanthrene control; for activity at 1 µM: 10^-6 M; for activity at 0.1 µM: 10^-7 M; for activity at 0.01 µM: 10^-8 M; for activity at 0.001 µM: 10^-9 M
Procedure: as §1, §2
The activity of compound Ia is quantified by counting the normal and hyperplastic alveoli in sections of the explant. The results are expressed in percentages of hyperplastic alveoli of the total number of alveoli, for example 120 hyperplastic alveoli out of a total of 200 correspond to 60%. In explants treated with retinoids the percentage is usually small. […] The percentage of hyperplastic alveoli is reduced to 20/60=33%.

[9] = Triglyceride / lipid value in blood plasma of rats; type: in vivo, albino rats
Procedure: In order to detect this activity a dosage of compound Ia was administered five times per dosage to 5 male and 5 female albino rats weighing approximately 150 g by means of a probang within 2 days in intervals of in each case 18 and 6 hours. 18 hours after the last application 1-1,2 ml of blood plasma were removed retroorbitally from the experimental animals. The triglyceride value was determined by enzymatic cleavage of the triglyceride with subsequent determination of the resulting glycerine (colour reaction) by means of Periodchrom triglyceride GPO-PAP.

[10] = simultaneous treatment, dimethylbenzanthracene (mitotic index 2.6) = 100%
[11] = subsequent treatment, dimethylbenzanthracene (mitotic index 3.1) = 100%
[12] = simultaneous treatment, methylcholanthrene (47% hyperplastic alveoli) = 100%
[13] = subsequent treatment, methylcholanthrene (65% hyperplastic alveoli) = 100%

CC(=Cc1ccccc1)c1ccc2c(c1)C(C)(C)CCC2(C)C [compound of formula I, 1,2,3,4-tetrahydro-1,1,4,4-tetramethyl-6-(alpha-methylstyryl)naphthalene]
Toxicity [1]: relatively non-toxic
Biological activity in preliminary screening tests [2]: biologically inactive

CC1=C(/C=C/C(C)=C/C=C/C(C)=C/C(=O)O)C(C)(C)CCC1 [all-trans vitamin A acid, reference compound]
Relative activity (antimetaplastic) [3]: 100%
Antimetaplastic effect (average effective / protective dosage) [3]: 35.7 µg

C/C(=C\c1ccccc1)c1ccc2c(c1)C(C)(C)CCC2(C)C [Compound Ia, 1,2,3,4-tetrahydro-1,1,4,4-tetramethyl-6-[(E)-alpha-methylstyryl]naphthalene]
% tumor-bearing rats ([4]; 30 mg/kg daily oral): 69.6%
Average number of tumors per rat ([4]; 30 mg/kg daily oral): 3.0
Average tumor volume per rat in mm^3 ([4]; 30 mg/kg daily oral): 4904 mm^3
% tumor-bearing rats, relative to control (100%) ([4]; 30 mg/kg daily oral): 88%
Average number of tumors per rat, relative to control (100%) ([4]; 30 mg/kg daily oral): 81%
Average tumor volume per rat, relative to control (100%) ([4]; 30 mg/kg daily oral): 77%
% tumor-bearing rats ([4]; 90 mg/kg daily oral): 63.8%
Average number of tumors per rat ([4]; 90 mg/kg daily oral): 1.8
Average tumor volume per rat in mm^3 ([4]; 90 mg/kg daily oral): 2879 mm^3
% tumor-bearing rats, relative to control (100%) ([4]; 90 mg/kg daily oral): 80%
Average number of tumors per rat, relative to control (100%) ([4]; 90 mg/kg daily oral): 48%
Average tumor volume per rat, relative to control (100%) ([4]; 90 mg/kg daily oral): 45%
% tumor-bearing rats ([4]; 270 mg/kg daily oral): 39.3%
Average number of tumors per rat ([4]; 270 mg/kg daily oral): 0.7
Average tumor volume per rat in mm^3 ([4]; 270 mg/kg daily oral): 543 mm^3
% tumor-bearing rats, relative to control (100%) ([4]; 270 mg/kg daily oral): 50%
Average number of tumors per rat, relative to control (100%) ([4]; 270 mg/kg daily oral): 18%
Average tumor volume per rat, relative to control (100%) ([4]; 270 mg/kg daily oral): 9%
Hypervitaminosis A phenomena ([5]; e.g. manifestations on skin and mucous membranes): does not exhibit, in particular, any hypervitaminosis A phenomena
Tolerability / toxic symptoms ([5]; in the therapeutically indicated dosages): well tolerated and that no toxic symptoms appear
Teratogenicity ([5]; in vivo): non-teratogenic
Skin irritation ([5]; skin): not irritating to the skin
Relative activity (antimetaplastic) [3]: 66.6%
Epithelium protection effect (=anti-metaplastic effect) reduced by the factor ([3]; compared with all-trans vitamin A acid): 0.67
Antimetaplastic effect (average effective / protective dosage) [3]: 53.6 µg
Tumor area in mm^2, Day 29 ([6]; five times per week for 4 weeks, Day 29 (control 5926)): 1694 mm^2
Change in tumor area, Day 29 ([6]; five times per week for 4 weeks, Day 29 vs Day 1 (control +394%)): +30%
Tumor area in mm^2, Day 1 ([6]; five times per week, Day 1): 1300 mm^2
Tumor area in mm^2, Day 15 after the commencement of treatment ([6]; five times per week, Day 15 (control 2880)): 1416 mm^2
Change in tumor area, Day 15 ([6]; five times per week, Day 15 vs Day 1 (control +140%)): +9%
activity at 1 µM [7, 10]: 54%
activity at 0.1 µM [7, 10]: 46%
activity at 0.01 µM [7, 10]: 46%
activity at 0.001 µM [7, 10]: 104%
activity at 1 µM [7, 11]: 45%
activity at 0.1 µM [7, 11]: 70%
activity at 0.01 µM [7, 11]: 74%
activity at 0.001 µM [7, 11]: 75%
activity at 1 µM [8, 12]: 25%
activity at 0.1 µM [8, 12]: 46%
activity at 0.01 µM [8, 12]: 60%
activity at 0.001 µM [8, 12]: 90%
activity at 1 µM [8, 13]: 54%
activity at 0.1 µM [8, 13]: 94%
activity at 0.01 µM [8, 13]: 98%
activity at 0.001 µM [8, 13]: 100%
Effect on the lipid value in blood plasma ([9]; as a sole therapeutically active retinoid): no increase in the lipid value in blood plasma
Lipid-lowering activity ([9]; blood plasma): possesses a lipid-lowering activity
Triglyceride value in blood plasma ([9]; female rats, 10 mg/kg by probang, five times within 2 days (control 69 ± 28)): 56 ± 25 mg/100 ml
Triglyceride value in blood plasma ([9]; female rats, 100 mg/kg by probang, five times within 2 days (control 69 ± 28)): 72 ± 18 mg/100 ml
Triglyceride value in blood plasma ([9]; female rats, 1000 mg/kg by probang, five times within 2 days (control 69 ± 28)): 30 ± 8 mg/100 ml
Triglyceride value in blood plasma ([9]; male rats, 10 mg/kg by probang, five times within 2 days (control 201 ± 39)): 158 ± 56 mg/100 ml
Triglyceride value in blood plasma ([9]; male rats, 100 mg/kg by probang, five times within 2 days (control 201 ± 39)): 173 ± 18 mg/100 ml
Triglyceride value in blood plasma ([9]; male rats, 1000 mg/kg by probang, five times within 2 days (control 201 ± 39)): 41 ± 19 mg/100 ml
